Consider six compounds from patent EP0369874A2, “Cardioprotective tocopherol analogs” (MERRELL DOW PHARMACEUTICALS INC., priority 1988, dated 1990).

Data set [1] can be described thus: Free-radical scavenging: inhibition of autoxidation of 1-epinephrine (Misra and Fridovich). Type of data set: biochemical. The following applies: 1-epinephrine 1 x 10⁻⁴M, EDTA 1 x 10⁻⁴M, 30°C, absorbance at 480; read-out: 50% inhibition of the autoxidation rate (ID₅₀). Here is the method: 2-(3,4-dihydro-6-hydroxy-2,5,7,8-tetramethyl-2H-1-benzopyran-2-yl)ethyl-N,N,N-trimethylammonium bromide, described in Example 1, was evaluated for its ability to reduce superoxide radicals in an assay described by H.P. Misra and J. Fridovich, 1972, J. Biol. Chem. 247, 3170-5. In this assay, the rate of autoxidation of 1-epinephrine (1 x 10⁻⁴M) in the presence of EDTA (1 x 10⁻⁴M) at 30°C is followed spectrophotometrically following the increase of absorbance at 480 mn. […] For comparison, 3,4-dihydro-6-hydroxy-2,5,7,8-tetramethyl-2H-1-benzopyran-2-carboxylic acid (CAS 53188-07-1) gave ID₅₀= 105 ± 8 µM and d,1-penicillamine (CAS 52-67-5)ID₅₀ = 73 µM in parallel experiments. Misra and Fridovich report that bovine superoxide dismutase gave 50% inhibition at […].

For data set [2], the system named is ligation-induced infarcted and reperfused rats. Nature of the data set: Cardioprotective effects: coronary ligation 60 min, reperfusion 30 min, infarcted area / area at risk. The class given is in vivo. Here is the method: 2-(3,4-Dihydro-2,5,7,8-tetramethyl-6-methylcarbonyloxy-2H-1-benzopyran-2-yl)ethyl-N,N,N-trimethylammonium bromide was evaluated in ligation-induced infarcted and reperfused rats as follows. One of two groups of rats was infused intravenously with a solution of test compound in saline at a rate of 2.3 ml/h (10 mg/kg/h). The control group was infused with saline at the same rate. After 10 min of drug infusion, coronary arteries were ligated surgically for 60 min, ligation was loosened to allow reperfusion for 30 min. The ligation was […] dye (Evans Blue) was injected. The animals were sacrificed and the heart ventricles were removed and weighed. The unstained tissue was dissected and weighed; this represents the "area at risk". i.e. the area that was deprived of blood supply by ligation. To determine the infarcted area, the tissue was incubated with 2,3,5-triphenyltetrazolium chloride. Infarcted tissue became light colored and could be dissected and weighed. Thus, for each rat that survived the ligation a measurement of "area at risk" and of "infarcted area" was obtained and the ratio was calculated as given in Tables II and III. TABLE II 3,4-Dihydro-2-(2-dimethylaminoethyl)-2,5,7,8-tetramethyl-2H-1-benzopyran-6-yl acetate hydrochloride was evaluated in ligation-induced infarcted and reperfused rats as follows. One of two groups of rats was infused intravenously with a solution of test compound in saline at a rate of 2.3 ml/h (10 mg/kg/h). The control group was infused with saline at the same rate. After 10 min of drug, coronary arteries were ligated surgically for 60 min, ligation was loosened to allow reperfusion for 30 min. The ligation was […] dye (Evans Blue) was injected. The animals were […] heart […] removed and weighed. The unstained tissue was dissected and weighed; this represents the "area at risk", i.e. the area that was deprived of blood supply by ligation. To determine the infarcted area, the tissue was incubated with 2,3,5-triphenyltetrazolium chloride. Infarcted tissue became light colored and was dissected and weighed. Thus, for each rat that survived the ligation a measurement of "area at risk" and of "infarcted area" was obtained and the ratio was calculated as shown in the following tables.

The nature of data set [3]: Affinity for cardiac tissue: radioactivity in heart and blood after intravenous 14C-labelled compound. The class given is in vivo. The following applies: rats, 0.91 mg base/kg intravenous. Here is the method: Following the procedure described in Example11, but using ¹⁴C-methyl p-toluenesulfonate in place of "cold material", ¹⁴C-labelled 2-(3,4-dihydro-2,5,7,8-tetramethyl-6-methylcarbonyloxy-2H-1benzopyranan-2-yl)ethyl-N,N,N-tri-¹⁴C-methylammonium p-toluenesulfonate was synthesized. The preparation was diluted with "cold material" to 11.74 µCi/mg base.
24 rats were given 0.91 mg base/kg by inravenous route (by canula into the jugular vein). The animals were sacrificed in groups of 3 at the time periods indicated in Table I. Immediately before sacrifice a 0.5 ml blood sample was taken from an indwelling catheter in the carotid artery. The hearts were removed, blotted and weighed. The samples of tissue and blood were solubilized with Luma Solve (a quarternary ammonium hydroxide preparation) and radioactivity was determined in a scintillation counter.

The mark [4] stands for this setting: treated group, intravenous infusion 10 mg/kg/h, individual rats, listed as 3,4-Dihydro-2-(2-dimethylaminoethyl)-2,5,7,8-tetramethyl-2H-1-benzopyran-6-yl ac, acetate hydrochloride.

Values joined by “and” are separate entries in the source; they are usually repeats but may differ in a detail not shown here. Equal values may be shown once.

For the compound `Cc1c(C)c2c(c(C)c1O)CCC(C)(C(=O)O)O2` (stereo not shown) [3,4-dihydro-6-hydroxy-2,5,7,8-tetramethyl-2H-1-benzopyran-2-carboxylic acid], in data set [1], the IC50 is 105 ± 8 µM.

The compound `CC(=O)Oc1c(C)c(C)c2c(c1C)CCC(C)(CCN(C)C)O2.Cl` (stereo not shown) [Example 4, 3,4-Dihydro-2-(2-dimethylaminoethyl)-2,5,7,8-tetramethyl-2H-benzopyran-6-yl acetate hydrochloride] yielded a reduction of infarction in data set [2] (treated group (10 mg/kg/h) versus saline control group) of 48.2%. Besides, the “Ratio % (infarcted tissue / tissue at risk), average” value in data set [2] (treated group, intravenous infusion 10 mg/kg/h, group average) was 38.0%. Further, in data set [2] (setting [4]), the Infarcted tissue was 337 mg and 80 mg and 51 mg (2×) and 346 mg and 18 mg and 294 mg and 34 mg; the “Ratio % (infarcted tissue / tissue at risk)” value is 70.1% and 40.3% and 10% and 83.2% and 4% and 71.6% and 17.5% and 7.0%.

As for `Cc1c(C)c2c(c(C)c1O)CCC(C)(CC[N+](C)(C)C)O2` (stereo not shown) [Example 10, 2-(3,4-Dihydro-6-hydroxy-2,5,7,8-tetramethyl-2H-1-benzo-pyran-2-yl)ethyl-N,N,N-trimethylammonium bromide], the IC50 in data set [1] was determined as 138 ± 14 µM.

For `CC(=O)Oc1c(C)c(C)c2c(c1C)CCC(C)(CC[N+](C)(C)C)O2.[Br-]` (stereo not shown) [Example 11, 2-(3,4-Dihydro-2,5,7,8-tetramethyl-6-methylcarbonyloxy-2H-1-benzopyran-2-yl)ethyl-N,N,N-trimethylammonium bromide], in data set [2] (treated group, intravenous infusion 10 mg/kg/h, individual rats), the Infarcted tissue was 23 mg and 27 mg and 39 mg and 33 mg.

Regarding `CC(=O)Oc1c(C)c(C)c2c(c1C)CCC(C)(CC[N+](C)(C)C)O2.Cc1ccc(S(=O)(=O)[O-])cc1` (stereo not shown) [Example 18, 2-(3,4-Dihydro-2,5,7,8-tetramethyl-6-methylcarbonyloxy-2H-1-benzopyran-2-yl)ethyl-N,N,N-trimethylammonium p-toluenesulfonate], the Ratio heart/blood in data set [3] (5 min after administration) was 3.05±1.46; in data set [3] (15 min after administration) it was 6.90±8.34; in data set [3] (30 min after administration) it was 17.33±5.42; in data set [3] (1 hour after administration) it was 20.09±2.54; in data set [3] (2 hours after administration) it was 21.90±3.56; in data set [3] (4 hours after administration, listed as 2-(3,4-dihydro-2,5,7,8-tetramethyl-6-methylcarbonyloxy-2H-1benzopyranan-2-yl)eth, p-toluenesulfonate) it was 27.15 and 27.15±4.30. For the same compound, the Ratio heart/blood in data set [3] (6 hours after administration) was determined as 18.62±2.77; in data set [3] (8 hours after administration), 15.12±2.69. The ng equiv/ml blood came out at 0.434±0.351 ng equiv/ml in data set [3] (5 min after administration); 0.590±0.295 ng equiv/ml in data set [3] (15 min after administration); 0.124±0.032 ng equiv/ml in data set [3] (30 min after administration); 0.096±0.008 ng equiv/ml in data set [3] (1 hour after administration); 0.086±0.041 ng equiv/ml in data set [3] (2 hours after administration); 0.054±0.013 ng equiv/ml in data set [3] (4 hours after administration). For the same compound, the ng equiv/ml blood in data set [3] (6 hours after administration) is given as 0.048±0.007 ng equiv/ml; in data set [3] (8 hours after administration), 0.048±0.012 ng equiv/ml. For the same compound, the “concentration of drug in heart tissue” value in data set [3] (after 8 h) is reported as 0.65 µg equiv/g.

In the case of d,1-penicillamine, the IC50 in data set [1] amounted to 73 µM.
